Key:
[1] = tested on: C. glabrata Cg10, Cg30, Cg32; experiment: Spermidine uptake rate; assay type: cell-based, Candida glabrata; settings: three strains of C. glabrata; method as in earlier work
Source text: (§1) Next, we investigated the role of altered Hst 5 uptake mechanisms between C. albicans and C. glabrata as a probable reason for their differential susceptibilities to Hst 5. C. albicans contains six DUR transporter family members that are responsible for polyamine (spermidine, spermine, and putrescine) uptake. […] C. glabrata CAGL0K03157g product has 54% identity and 71% similarity with C. albicans DUR3 (orf19.781); and C. glabrata CAGL0108613g product has 51% identity and 69% similarity with C. albicans DUR31 (orf19.6656). However, C. glabrata CAGL0K03157g (CaDUR3 homologue) gene product has even higher homology with S. cerevisiae DUR3, having 65% identity and 76% similarity. The in silico predicted function of these C. glabrata proteins is transmembrane transport; however their specific functions remain uncharacterized. […] There were no significant differences in rates of spermidine uptake among the three strains of C. glabrata (0.163±0.015 nanomoles/10^6 cells/min) compared to C. albicans (0.160±0.014 nanomoles/10^6 cells/min); thus showing polyamine transporter activity is equivalent between C. albicans and C. glabrata strains in respect to spermidine.

C. albicans CAI4 [2] = experiment: Spermidine uptake rate; assay type: cell-based, Candida albicans; settings: method as in earlier work
Source text: as §1

C. albicans CAI4 [3] = experiment: Candidacidal assay (microdilution plate); assay type: cell-based, Candida albicans; settings: 31 µM Hst 5; 1×10^6 cells, 10 mM NaPB pH 7.2, 30°C, 30 min, colony counts after 48 h; n = 4
Method: (§2) Candidacidal assays were performed using microdilution plate assays. Briefly, single colonies of C. albicans CAI4, C. glabrata Cg10, Cg30, Cg32, and BG14 strains were inoculated in YPD media; Cg BG14-CaDUR3, Cg BG14-CaDUR31, and Cg BG14-Empty vector were inoculated in YNB media without uridine and grown overnight (A600 = 1.6–1.8). Cells were washed twice with 10 mM sodium phosphate buffer (NaPB) (pH 7.2) and cells (1×10^6) were incubated at 30°C for 30 min with different concentrations of Hst 5. Aliquots of 500 cells were spread onto YPD (WT strains) or YNB - uridine (C. glabrata expressing C. albicans DUR genes) agar plates and incubated for 48 h to visualize surviving colonies. Blocking experiments were performed using cells pre-incubated with β-1,3-glucan monoclonal antibody (Biosupplies) at room temperature for 30 min. All killing assays were performed in triplicate and repeated at least thrice. Percent cell killing was calculated as 1−(number of colonies from suspensions with Hst 5/numbers of colonies from control suspensions)×100.

Cg BG14-CaDUR3 = experiment: Candidacidal assay (microdilution plate); assay type: cell-based, Candida glabrata; settings: Hst 5 60 µM; 10 mM NaPB pH 7.2, 30°C, 30 min, colony counts; n = 3
Method: as §2

[4] = tested on: C. glabrata BG14 cells not expressing C. albicans DUR genes; experiment: Candidacidal assay (microdilution plate); assay type: cell-based, Candida glabrata; settings: Hst 5 60 µM; 10 mM NaPB pH 7.2, 30°C, 30 min, colony counts; n = 3
Method: as §2

Cg BG14-CaDUR31 = experiment: Candidacidal assay (microdilution plate); assay type: cell-based, Candida glabrata; settings: Hst 5 60 µM; 10 mM NaPB pH 7.2, 30°C, 30 min, colony counts; n = 3
Method: as §2

[5] = tested on: C. glabrata Cg 90030 (Cg30); experiment: Candidacidal assay (microdilution plate); assay type: cell-based, Candida glabrata; settings: Hst 5 up to 31 µM; 10 mM NaPB pH 7.2, 30°C, 30 min, colony counts; n = 4
Method: as §2

[6] = tested on: C. glabrata Cg 931010 (Cg10); experiment: Candidacidal assay (microdilution plate); assay type: cell-based, Candida glabrata; settings: 31 µM Hst 5; 1×10^6 cells, 10 mM NaPB pH 7.2, 30°C, 30 min, colony counts; n = 4
Method: as §2

[7] = tested on: C. glabrata Cg 90032 (Cg32); experiment: Candidacidal assay (microdilution plate); assay type: cell-based, Candida glabrata; settings: Hst 5 up to 31 µM; 10 mM NaPB pH 7.2, 30°C, 30 min, colony counts; n = 4
Method: as §2

C. albicans CAI4 biofilm = experiment: Confocal microscopy of F-Hst 5 in 24 h biofilms; assay type: cell-based, Candida albicans; settings: FITC-labeled Hst 5 31.5 µM, 24 h biofilm
Method: (§3) CAI4, Cg10, Cg30, Cg32, BG14, Cg BG14-CaDUR3, Cg BG14-CaDUR31, and Cg BG14-Empty vector were treated with fluorescein isothiocyanate FITC-labeled Hst 5 (F-Hst 5, synthesized by Genemed Synthesis, Inc.) to observe relative binding and uptake of salivary Hst 5 as described previously. […] Cells grown overnight (A600 = 0.8–1.0) were diluted to obtain 10^6 cells/ml in NaPB. Chambered cover glass slides (Lab-TekII) were coated with concanavalin A (100 µg/ml) for 30 min and washed twice with water. Cells (1×10^6) were fixed on concanavalin A-coated slides for 30 min at room temperature. The plates were then washed twice with 10 mM NaPB followed by addition of 31 µM FITC-Hst 5. Images were captured using a Zeiss LSM 510 Meta Confocal Microscope and Plan Apochromat 63/1.4 (oil) objective. The average fluorescence intensity was calculated using ImageJ software. Confocal images of cells were compared to determine the relative binding and uptake of Hst 5. Hst 5 binding to Candida biofilms was analyzed using confocal microscopy on biofilms of CAI4 and Cg30 strains. Biofilms were formed by addition of 500 µl cells (cultured overnight in YPD at 28°C, then washed and diluted to OD600 = 1.0 in PBS) to each well of culture dishes (MatTek, MA) and incubated at 37°C for 3 h. Non-adherent cells were removed by gentle washing and 500 µl media was added to each well. The dishes were then incubated at 37°C for 24 h to allow biofilm formation. F-Hst 5 (31.5 µM) was added to each well. Biofilms were measured using a series of horizontal (x–y) optical sections with a thickness of 0.38 µm taken throughout the full length of the biofilm. Z-stack images and thickness measurements of biofilms were obtained using AxioVision 4.4 software (Carl Zeiss LSM Micro Imaging). […] The total number of F-Hst 5 labeled cells was quantified in CAI4 and Cg30 biofilms manually from three independent stacks originating at the Bottom (2–3 µm), Middle (6–8 µm) or Top (12–16 µm) regions of the biofilm. Values were plotted using Graphpad Prism 5 software.

[8] = tested on: C. glabrata strains (ATCC 90030, 2001 and 64677); settings: strains completely insensitive even at high concentrations; ref [10]; cited from earlier work
Source text: Histatins are basic histidine-rich proteins secreted in human parotid and submandibular-sublingual saliva in humans and higher primates. Histatin 5 (Hst 5) is a proteolytic cleavage product of the larger Histatin 3 family member, [6]. […] However, ma ...

C. glabrata Cg30 biofilm = experiment: Confocal microscopy of F-Hst 5 in 24 h biofilms; assay type: cell-based, Candida glabrata; settings: FITC-labeled Hst 5 31.5 µM, 24 h biofilm
Method: as §3, with “Confocal images of cells were compared to determine the relative binding and uptake of Hst 5.” left out, “Biofilms were formed by addition of 500 µl cells (cultured overnight in YPD at 28°C, then washed and diluted to OD600 = 1.0 in PBS) to each well of culture dishes (MatTek, MA) and incubated at 37°C for 3 h. Non-adherent cells were removed by gentle washing and 500 µl media was added to each well. The dishes were then incubated at 37°C for 24 h to allow biofilm formation. F-Hst 5 (31.5 µM) was added to each well.” left out, “biofilm.” for “biofilm. Z-stack images and thickness measurements of biofilms were obtained using AxioVision 4.4 software (Carl Zeiss LSM Micro Imaging).”, “Values were plotted using Graphpad Prism 5 software.” left out

NCCCCNCCCN [spermidine]
rate of spermidine uptake [1]: 0.163±0.015 nanomoles/10^6 cells/min | rate of spermidine uptake (C. albicans CAI4 [2]): 0.160±0.014 nanomoles/10^6 cells/min

Histatin 5 [Hst 5]
cell death (killing) (C. albicans CAI4 [3]): 65% | killing (Cg BG14-CaDUR3): 43% | killing [4]: 25% | killing (Cg BG14-CaDUR31): 55% | maximal killing [5]: 8% | killing [6]: 22% | maximal killing [7]: 10% | Hst 5 containing cells, total biofilm (C. albicans CAI4 biofilm): 28% | percentage of Hst 5 containing cells, bottom regions (C. albicans CAI4 biofilm): ≈ 25% | percentage of Hst 5 positive cells, middle regions (8 µm) (C. albicans CAI4 biofilm): 33% | IC50 [8]: > 225 µg/mL | Hst 5 containing cells, total biofilm (C. glabrata Cg30 biofilm): 17% | percentage of Hst 5-labeled cells, bottom regions (2.5 µm) (C. glabrata Cg30 biofilm): 20%
